Values quoted from earlier work as cited in US20160176819A1, “ASYMMETRICALLY CHARGED NIR FLUOROPHORES” (Washington University, priority 2014, published 2016).
Several values for one entry are separate records, joined by “and”; a condition that tells them apart may be missing. Equal values may be shown once.

Legend:
[1] = reference value; cited from earlier work
[2] = ICG in DMSO, literature values; cited from earlier work

## CC1(C)C(/C=C/C=C/C=C/C=C2\N(CCCCS(=O)(=O)O)c3ccc4ccccc4c3C2(C)C)=[N+](CCCCS(=O)(=O)[O-])c2ccc3ccccc3c21 [ICG, indocyanine green]
[1]
  QY of the reference: 23%
[2]
  fluorescence quantum yield of the reference: 0.12 and 0.22
